This note sets out measurements from the OligoGym collection.

The data set concerns the target HBV. As to conditions: ASO.

Where “and” joins values, the source holds several entries; their conditions need not be identical. Equal entries are not always repeated. HELM strings list units from the 5' end as sugar, base in round brackets, then linkage (d deoxyribose, r ribose, m 2'-O-methyl, p phosphodiester). Methylation of C is not given here. [moe] = 2'-O-(2-methoxyethyl) (MOE); [cEt] = constrained ethyl (cEt); [sp] = phosphorothioate linkage

With “RNA1{[moe](A)[sp].[cEt](T)[sp].[cEt](G)[sp].d(A)[sp].d(G)[sp].d(G)[sp].d(C)[sp].d(A)[sp].d(T)[sp].d(A)[sp].d(G)[sp].d(C)[sp].d(A)[sp].[cEt](G)[sp].[cEt](C)[sp].[moe](A)}$$$$V2.0”, the target mRNA inhibition was 13% (HepG2, 0.0092593 µM); 14% (HepG2, 0.0277778 µM); 65% and 83% (HepG2, 0.07 µM); 55% (HepG2, 0.0833333 µM); 70% (HepG2, 0.25 µM).

Turning to “RNA1{[moe](C)[sp].[moe](G)[sp].[moe](G)[sp].d(G)[sp].d(C)[sp].d(A)[sp].d(A)[sp].d(C)[sp].d(A)[sp].d(T)[sp].d(A)[sp].d(C)[sp].d(C)[sp].[cEt](T)[sp].[cEt](T)[sp].[cEt](G)}$$$$V2.0”, the target mRNA inhibition (HepG2, 0.07 µM) was 56% and 65%.

In the case of “RNA1{[moe](A)[sp].[moe](C)[sp].[moe](G)[sp].d(T)[sp].d(G)[sp].d(C)[sp].d(A)[sp].d(G)[sp].d(A)[sp].d(G)[sp].d(G)[sp].d(T)[sp].[moe](G)[sp].[moe](A)[sp].[moe](A)[sp].[moe](G)[sp].[moe](C)}$$$$V2.0”, for the setting “HepG2, 0.07 µM”, the target mRNA inhibition is 79% and 72%.

Take “RNA1{[moe](G)[sp].[moe](T)[sp].d(G)[sp].d(A)[sp].d(A)[sp].d(G)[sp].d(C)[sp].d(G)[sp].d(A)[sp].d(A)[sp].d(G)[sp].[moe](T)[sp].[moe](G)[sp].[moe](C)[sp].[moe](A)[sp].[moe](C)[sp].[moe](A)}$$$$V2.0”: for the setting “HepG2, 0.07 µM”, the target mRNA inhibition is 73% and 68%.

Regarding “RNA1{[moe](G)[sp].[moe](A)[sp].[moe](A)[sp].[moe](C)[sp].d(C)[sp].d(A)[sp].d(C)[sp].d(T)[sp].d(G)[sp].d(A)[sp].d(A)[sp].d(C)[sp].d(A)[sp].[moe](A)[sp].[moe](A)[sp].[moe](T)}$$$$V2.0”, where the note is “HepG2, 0.07 µM”, the target mRNA inhibition is 34% and 23%.

Regarding “RNA1{[moe](T)[sp].[cEt](A)[sp].[cEt](T)[sp].d(G)[sp].d(C)[sp].d(C)[sp].d(T)[sp].d(A)[sp].d(C)[sp].d(A)[sp].d(G)[sp].d(C)[sp].d(C)[sp].[cEt](T)[sp].[cEt](C)[sp].[moe](C)}$$$$V2.0”, the target mRNA inhibition (HepG2, 0.07 µM) is 55% and 36%.

Turning to “RNA1{[moe](T)[sp].[moe](A)[sp].d(T)[sp].d(G)[sp].d(C)[sp].d(C)[sp].d(T)[sp].d(A)[sp].d(C)[sp].d(A)[sp].d(G)[sp].[moe](C)[sp].[moe](C)[sp].[moe](T)[sp].[moe](C)[sp].[moe](C)}$$$$V2.0”, under “HepG2, 0.07 µM”, the target mRNA inhibition was 54% and 55%.

Consider “RNA1{[moe](C)[sp].[moe](G)[sp].[moe](A)[sp].[moe](A)[sp].[moe](C)[sp].d(C)[sp].d(A)[sp].d(C)[sp].d(T)[sp].d(G)[sp].d(A)[sp].d(A)[sp].d(C)[sp].d(A)[sp].[moe](A)[sp].[moe](A)}$$$$V2.0”, for which the target mRNA inhibition (HepG2, 0.07 µM) is 36% and 19%.

For “RNA1{[moe](T)[sp].[moe](G)[sp].[moe](A)[sp].[moe](G)[sp].d(G)[sp].d(C)[sp].d(A)[sp].d(T)[sp].d(A)[sp].d(G)[sp].d(C)[sp].d(A)[sp].d(G)[sp].[moe](C)[sp].[moe](A)[sp].[moe](G)[sp].[moe](G)}$$$$V2.0”, the target mRNA inhibition (HepG2, 0.07 µM) is 38% and 40%.

Regarding “RNA1{[moe](A)[sp].[moe](T)[sp].[moe](T)[sp].[cEt](T)[sp].d(A)[sp].d(T)[sp].d(G)[sp].d(C)[sp].d(C)[sp].d(T)[sp].d(A)[sp].d(C)[sp].d(A)[sp].[cEt](G)[sp].[moe](C)[sp].[moe](C)[sp].[moe](T)}$$$$V2.0”, the target mRNA inhibition runs as follows: (HepG2, 0.009375 µM) 32%; (HepG2, 0.01875 µM) 32%; (HepG2, 0.0375 µM) 42%; (HepG2, 0.075 µM) 62%; (HepG2, 0.15 µM) 76%; (HepG2, 0.3 µM) 80%.

Turning to “RNA1{[moe](G)[sp].[moe](C)[sp].d(A)[sp].d(G)[sp].d(A)[sp].d(G)[sp].d(G)[sp].d(T)[sp].d(G)[sp].d(A)[sp].d(A)[sp].[moe](G)[sp].[moe](C)[sp].[moe](G)[sp].[moe](A)[sp].[moe](A)}$$$$V2.0”, the target mRNA inhibition (HepG2, 0.07 µM) is 58% and 57%.

In the case of “RNA1{[moe](C)[sp].[moe](G)[sp].[moe](T)[sp].[moe](G)[sp].[moe](C)[sp].d(A)[sp].d(G)[sp].d(A)[sp].d(G)[sp].d(G)[sp].d(T)[sp].d(G)[sp].d(A)[sp].d(A)[sp].[moe](G)[sp].[moe](C)[sp].[moe](G)}$$$$V2.0”, the target mRNA inhibition (HepG2, 0.07 µM) is 74% and 63%.

As to “RNA1{[moe](C)[sp].[cEt](A)[sp].[cEt](C)[sp].d(A)[sp].d(G)[sp].d(C)[sp].d(T)[sp].d(T)[sp].d(G)[sp].d(G)[sp].d(A)[sp].d(G)[sp].d(G)[sp].[cEt](C)[sp].[cEt](T)[sp].[moe](T)}$$$$V2.0”, the target mRNA inhibition (HepG2, 0.07 µM) was 11% and 0%.

As for “RNA1{[moe](G)[sp].[cEt](A)[sp].[cEt](A)[sp].d(C)[sp].d(C)[sp].d(A)[sp].d(C)[sp].d(T)[sp].d(G)[sp].d(A)[sp].d(A)[sp].d(C)[sp].d(A)[sp].[cEt](A)[sp].[cEt](A)[sp].[moe](T)}$$$$V2.0”, under “HepG2, 0.07 µM”, the target mRNA inhibition was 65% and 53%.

On to “RNA1{[moe](C)[sp].[cEt](C)[sp].[cEt](A)[sp].d(C)[sp].d(A)[sp].d(T)[sp].d(C)[sp].d(A)[sp].d(T)[sp].d(C)[sp].d(C)[sp].d(A)[sp].d(T)[sp].[cEt](A)[sp].[cEt](T)[sp].[moe](A)}$$$$V2.0”, for which the target mRNA inhibition (HepG2, 0.07 µM) is 60% and 50%.

Turning to “RNA1{[moe](A)[sp].[moe](G)[sp].[moe](G)[sp].d(C)[sp].d(A)[sp].d(T)[sp].d(A)[sp].d(G)[sp].d(C)[sp].d(A)[sp].d(G)[sp].d(C)[sp].d(A)[sp].[cEt](G)[sp].[cEt](G)[sp].[cEt](A)}$$$$V2.0”, for the setting “HepG2, 0.07 µM”, the target mRNA inhibition was 69% and 77%.

On to “RNA1{[moe](A)[sp].[moe](G)[sp].d(A)[sp].d(T)[sp].d(G)[sp].d(A)[sp].d(G)[sp].d(G)[sp].d(C)[sp].d(A)[sp].d(T)[sp].[moe](A)[sp].[moe](G)[sp].[moe](C)[sp].[moe](A)[sp].[moe](G)[sp].[moe](C)}$$$$V2.0”, for which the target mRNA inhibition (HepG2, 0.07 µM) was 76% and 78%.

For “RNA1{[moe](A)[sp].[moe](T)[sp].[moe](G)[sp].[moe](A)[sp].d(G)[sp].d(G)[sp].d(C)[sp].d(A)[sp].d(T)[sp].d(A)[sp].d(G)[sp].d(C)[sp].d(A)[sp].[moe](G)[sp].[moe](C)[sp].[moe](A)[sp].[moe](G)}$$$$V2.0”, the target mRNA inhibition (HepG2, 0.07 µM) came to 0%.

On to “RNA1{[moe](C)[sp].[moe](A)[sp].[moe](G)[sp].[moe](A)[sp].d(G)[sp].d(G)[sp].d(T)[sp].d(G)[sp].d(A)[sp].d(A)[sp].d(G)[sp].d(C)[sp].d(G)[sp].[moe](A)[sp].[moe](A)[sp].[moe](G)[sp].[moe](T)}$$$$V2.0”, for which the target mRNA inhibition (HepG2, 0.07 µM) is 60% and 45%.

Take “RNA1{[moe](C)[sp].[moe](T)[sp].[moe](A)[sp].d(G)[sp].d(T)[sp].d(A)[sp].d(A)[sp].d(A)[sp].d(C)[sp].d(T)[sp].d(G)[sp].d(A)[sp].[moe](G)[sp].[moe](C)[sp].[moe](C)[sp].[moe](A)}$$$$V2.0”: where the note is “HepG2, 0.07 µM”, the target mRNA inhibition was 66% and 60%.

Take “RNA1{[moe](A)[sp].[moe](G)[sp].[moe](A)[sp].[moe](G)[sp].d(G)[sp].d(T)[sp].d(G)[sp].d(A)[sp].d(A)[sp].d(G)[sp].d(C)[sp].d(G)[sp].d(A)[sp].[moe](A)[sp].[moe](G)[sp].[moe](T)}$$$$V2.0”: under “HepG2, 0.07 µM”, the target mRNA inhibition is 52% and 54%.

Regarding “RNA1{[moe](A)[sp].[moe](T)[sp].[moe](G)[sp].d(A)[sp].d(G)[sp].d(G)[sp].d(C)[sp].d(A)[sp].d(T)[sp].d(A)[sp].d(G)[sp].d(C)[sp].d(A)[sp].[cEt](G)[sp].[cEt](C)[sp].[cEt](A)}$$$$V2.0”, the target mRNA inhibition (HepG2, 0.07 µM) was 71% and 73%.

Take “RNA1{[moe](C)[sp].[cEt](A)[sp].[cEt](G)[sp].d(C)[sp].d(T)[sp].d(T)[sp].d(G)[sp].d(G)[sp].d(A)[sp].d(G)[sp].d(G)[sp].d(C)[sp].d(T)[sp].[cEt](T)[sp].[cEt](G)[sp].[moe](A)}$$$$V2.0”: the target mRNA inhibition (HepG2, 0.07 µM) was 5% and 12%.

As for “RNA1{[moe](C)[sp].[moe](C)[sp].d(A)[sp].d(A)[sp].d(T)[sp].d(T)[sp].d(T)[sp].d(A)[sp].d(T)[sp].d(G)[sp].d(C)[sp].[moe](C)[sp].[moe](T)[sp].[moe](A)[sp].[moe](C)[sp].[moe](A)[sp].[moe](G)}$$$$V2.0”, the target mRNA inhibition (HepG2, 0.07 µM) was 41% and 42%.

For “RNA1{[moe](A)[sp].[cEt](C)[sp].[cEt](A)[sp].d(A)[sp].d(A)[sp].d(T)[sp].d(G)[sp].d(G)[sp].d(C)[sp].d(A)[sp].d(C)[sp].d(T)[sp].d(A)[sp].[cEt](G)[sp].[cEt](T)[sp].[moe](A)}$$$$V2.0”, the target mRNA inhibition (HepG2, 0.07 µM) is 67% and 61%.

“RNA1{[moe](G)[sp].[moe](C)[sp].[moe](A)[sp].[moe](C)[sp].[moe](T)[sp].[moe](A)[sp].d(G)[sp].d(T)[sp].d(A)[sp].d(A)[sp].d(A)[sp].d(C)[sp].d(T)[sp].d(G)[sp].d(A)[sp].[moe](G)[sp].[moe](C)}$$$$V2.0”: the target mRNA inhibition (HepG2, 0.07 µM) is 74% and 65%.

Consider “RNA1{[moe](A)[sp].[moe](G)[sp].d(A)[sp].d(T)[sp].d(G)[sp].d(A)[sp].d(G)[sp].d(G)[sp].d(C)[sp].d(A)[sp].d(T)[sp].[moe](A)[sp].[moe](G)[sp].[moe](C)[sp].[moe](A)[sp].[moe](G)}$$$$V2.0”, for which the target mRNA inhibition (HepG2, 0.07 µM) is 62% and 46%.

On to “RNA1{[moe](G)[sp].[moe](G)[sp].[moe](A)[sp].[moe](G)[sp].[moe](T)[sp].d(T)[sp].d(C)[sp].d(C)[sp].d(G)[sp].d(C)[sp].d(A)[sp].d(G)[sp].d(T)[sp].d(A)[sp].[moe](T)[sp].[moe](G)}$$$$V2.0”, for which the target mRNA inhibition (HepG2, 0.07 µM) was 74% and 50%.

On to “RNA1{[moe](A)[sp].[moe](A)[sp].[moe](G)[sp].d(C)[sp].d(G)[sp].d(A)[sp].d(A)[sp].d(G)[sp].d(T)[sp].d(G)[sp].d(C)[sp].d(A)[sp].[moe](C)[sp].[moe](A)[sp].[moe](C)[sp].[moe](G)}$$$$V2.0”, for which the target mRNA inhibition (HepG2, 0.07 µM) was 74% and 64%.
